# System: vaginal microbiota (PB-primer target groups)
# Experiment: PB-qPCR microbial profiles of vaginal swabs of recurrent BV patients (Example 2)
# Format: in vivo, human
# Conditions: P4
# Experimental: Sample processing, DNA extraction, and qPCR. Microbial gDNA was purified from swabs in 1-2 ml saline or lysis solution by a high SDS/alkaline lysis—phenol extraction protocol as described previously in Lambert and resuspended in 200 μL TE (10 mM Tris, pH 8, 1 mM EDTA). The lysed bacterial gDNA is stable for over one month at room temperature in lysis solution buffer (data not shown) and this buffer prevents changes in titer due to possible stability issues with different strains of bacteria in saline. An aliquot of purified DNA was assayed by qPCR with 18 universal and phylogenetic branch-inclusive (PB) primers and PCR conditions as described previously in Lambert. Additional primers, targeting the Enterococcus genus and its cytolysin gene CyILL, are provided in SEQ ID NOs: 92 and 95 (Enterococcus), and 93 and 96 (cytolysin gene). Each PB-primer targets a branch of the phylogenetic tree, from whole phyla to family or genus, and is far more inclusive than species-specific primers. Relative LB composition of the vaginal microbiome was determined by dividing the Lactobacillaceae titer by the sum of all PB-primers and by using the disclosed LB-blocker approach. Briefly, the LB-blocker approach uses the difference between the quantitative cycles (Cq) of two parallel qPCR reactions with universal primers targeting the 16S rRNA gene, when one of the reactions is in the presence of LB spp.-specific blocking oligomers (LB-blockers) that have been chemically modified to prevent extension and that partially overlap the universal primer binding site, effectively rendering the LB DNA “invisible” to the universal PCR, even when LB gDNA is present at great excess compared to non-LB gDNA, as is common in healthy and PT samples. PB-primers amplicons were selectively sequenced to confirm they were correctly targeted and to identify the dominant species. These were “cleaned” enzymatically as described in Lambert, and Sanger sequenced at Functional Biosciences (Madison, WI). Sequences were uploaded to Ribosomal Database Project II using its Pipeline function; species were identified based on phylogenetic trees constructed in Molecular Evolutionary Genetics Analysis (MEGA5) software.
# Calculations. Cq values from qPCR reactions were converted to molecules per reaction by comparing sample Cq values to a standard curve from the same run of Cq values derived from dilutions of an amplicon of known target of known concentration. Molecules per reaction were converted to cells per swab, assuming an average of 5 ribosomal genes per cell and proportioned to the ratio of the volume of the sample used in the DNA prep and the amount of sample used in the qPCR reaction. Delta Cq (ΔCq) values of LB-blocked reaction pairs were calculated as Cq (blocked sample)−Cq (unblocked sample). Differences between patient groups were compared using the t test in (GraphPad software).
compound,measurement,value
CCS(=O)(=O)CCn1c([N+](=O)[O-])cnc1C [tinidazole],Relative level of the 7 non-LB targets detected after treatment,under 0.1%
same,Response to treatment (microbial profile),responded well

# Source: patent publication US12509734B2, “Systems and methods to assess microbiomes and treatments thereof” (priority 2013, dated 2025)
